Measurements reported in ChEMBL document CHEMBL1154530, “Pyridyl-pyrimidine benzimidazole derivatives as potent, selective, and orally bioavailable inhibitors of Tie-2 kinase” (Bioorg Med Chem Lett, 2009).
pEC50, pIC50: −log10 of the molar value. Activity calls are given as the source filed them. The rule behind the calls is not given here.

Assays:
[1] = target: T1, Angiopoietin-1 receptor (Homo sapiens, UniProt Q02763); assay: Inhibition of Tie2
[2] = target: Vascular endothelial growth factor receptor 2 (Homo sapiens, UniProt P35968); assay: Inhibition of KDR
Vascular endothelial growth factor receptor 2, sequence (P35968 whole entry): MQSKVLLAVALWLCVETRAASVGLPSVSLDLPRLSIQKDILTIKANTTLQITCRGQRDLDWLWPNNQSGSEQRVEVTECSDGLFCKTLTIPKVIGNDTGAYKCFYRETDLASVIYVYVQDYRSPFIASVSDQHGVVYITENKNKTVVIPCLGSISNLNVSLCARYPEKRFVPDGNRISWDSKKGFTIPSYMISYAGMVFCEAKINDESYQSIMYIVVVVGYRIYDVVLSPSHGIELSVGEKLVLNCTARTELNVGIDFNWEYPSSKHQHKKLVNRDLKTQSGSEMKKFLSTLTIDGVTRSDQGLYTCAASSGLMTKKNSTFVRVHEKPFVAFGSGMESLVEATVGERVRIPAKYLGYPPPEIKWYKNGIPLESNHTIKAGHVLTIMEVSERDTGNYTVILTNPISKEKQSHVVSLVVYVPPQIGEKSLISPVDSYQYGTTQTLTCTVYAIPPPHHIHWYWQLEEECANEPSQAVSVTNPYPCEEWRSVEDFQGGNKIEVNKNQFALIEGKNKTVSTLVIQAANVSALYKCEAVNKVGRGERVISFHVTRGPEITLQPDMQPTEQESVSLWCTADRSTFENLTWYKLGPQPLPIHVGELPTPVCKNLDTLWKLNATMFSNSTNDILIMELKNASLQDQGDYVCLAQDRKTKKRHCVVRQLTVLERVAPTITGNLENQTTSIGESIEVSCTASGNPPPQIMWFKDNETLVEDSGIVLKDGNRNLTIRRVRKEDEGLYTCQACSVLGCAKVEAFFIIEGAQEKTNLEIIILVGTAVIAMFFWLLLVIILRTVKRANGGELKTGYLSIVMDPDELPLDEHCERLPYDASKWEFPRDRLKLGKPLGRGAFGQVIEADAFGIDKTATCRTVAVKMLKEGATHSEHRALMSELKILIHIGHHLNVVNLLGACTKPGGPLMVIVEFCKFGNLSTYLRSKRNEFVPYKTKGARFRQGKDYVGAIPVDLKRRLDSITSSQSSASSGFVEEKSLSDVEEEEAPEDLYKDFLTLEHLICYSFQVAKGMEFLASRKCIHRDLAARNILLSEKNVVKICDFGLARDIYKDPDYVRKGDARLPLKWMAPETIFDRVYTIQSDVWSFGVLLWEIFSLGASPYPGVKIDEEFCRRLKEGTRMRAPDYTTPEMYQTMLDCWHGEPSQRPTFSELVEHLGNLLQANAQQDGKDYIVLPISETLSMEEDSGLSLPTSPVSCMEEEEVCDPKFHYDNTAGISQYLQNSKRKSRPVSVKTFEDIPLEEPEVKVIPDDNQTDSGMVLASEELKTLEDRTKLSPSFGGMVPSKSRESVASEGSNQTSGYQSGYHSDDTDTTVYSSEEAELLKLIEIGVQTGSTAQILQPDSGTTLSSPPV

[3] = target: T2, Aurora kinase A (Homo sapiens, UniProt O14965); assay: Inhibition of Aurora A
T2 sequence (O14965 whole entry): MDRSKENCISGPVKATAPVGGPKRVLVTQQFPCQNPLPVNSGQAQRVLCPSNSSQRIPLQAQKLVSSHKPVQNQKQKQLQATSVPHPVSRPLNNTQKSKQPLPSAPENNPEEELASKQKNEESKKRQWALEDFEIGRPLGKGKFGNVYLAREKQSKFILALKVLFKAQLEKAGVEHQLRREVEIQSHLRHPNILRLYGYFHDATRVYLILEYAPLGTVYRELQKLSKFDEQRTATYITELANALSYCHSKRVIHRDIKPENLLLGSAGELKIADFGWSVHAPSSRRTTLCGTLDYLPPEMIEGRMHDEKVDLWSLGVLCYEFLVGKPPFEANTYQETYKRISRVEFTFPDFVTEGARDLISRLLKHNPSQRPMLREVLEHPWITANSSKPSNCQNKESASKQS

[4] = target: Aurora kinase B (Homo sapiens, UniProt Q96GD4); assay: Inhibition of Aurora B
Aurora kinase B, sequence (Q96GD4 whole entry): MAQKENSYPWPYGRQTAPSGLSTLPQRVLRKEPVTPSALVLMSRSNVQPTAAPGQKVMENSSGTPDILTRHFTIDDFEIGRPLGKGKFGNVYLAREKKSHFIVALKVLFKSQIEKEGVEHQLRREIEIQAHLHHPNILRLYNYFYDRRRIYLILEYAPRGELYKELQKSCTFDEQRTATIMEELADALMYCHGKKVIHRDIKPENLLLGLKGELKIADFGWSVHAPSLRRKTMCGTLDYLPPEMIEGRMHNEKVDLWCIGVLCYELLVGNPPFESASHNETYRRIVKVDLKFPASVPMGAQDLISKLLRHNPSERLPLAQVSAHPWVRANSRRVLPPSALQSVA

[5] = Inhibition of Aurora kinase in human HeLa cells assessed as induction of >=4N DNA content; assay type: cell-based
[6] = Clearance in Sprague-Dawley rat at 0.5 mg/kg, iv; assay type: ADME, organism-based; parameters: dose 0.5 mg/kg, route intravenous; conditions: in vivo
[7] = Volume of distribution at steady state in Sprague-Dawley rat at 0.5 mg/kg, iv; assay type: ADME, organism-based; parameters: dose 0.5 mg/kg, route intravenous; conditions: in vivo, read-out: Vdss
[8] = Half life in Sprague-Dawley rat at 0.5 mg/kg, iv; assay type: ADME, organism-based; parameters: dose 0.5 mg/kg, route intravenous; conditions: in vivo
[9] = Oral bioavailability in Sprague-Dawley rat at 5 mg/kg; assay type: ADME, organism-based; conditions: in vivo
[10] = test system: Mus musculus; assay: Inhibition of human angiopoietin-1-stimulated Tie2 phosphorylation in po dosed mouse lung tissue model; assay type: functional, organism-based
[11] = test system: Mus musculus; assay: Inhibition of human angiopoietin-1-stimulated Tie2 phosphorylation in mouse lung tissue model at >=30 mg/kg, po; assay type: functional, organism-based
[12] = test system: Mus musculus; assay: Inhibition of human angiopoietin-1-stimulated Tie2 phosphorylation in mouse lung tissue model at 10 mg/kg, po; assay type: functional; parameters: scale not given: the % may be the effect or the level left
[13] = test system: Mus musculus; assay: Plasma concentration in mouse at 10 mg/kg, po; assay type: ADME, organism-based; parameters: dose 10 mg/kg, route oral; conditions: in vivo
[14] = Protein binding in mouse plasma; assay type: ADME, cell-free; conditions: read-out: PPB (converted)
[15] = test system: Plasma; assay: Unbound concentration in mouse plasma
[16] = target: T1, Angiopoietin-1 receptor; assay: Inhibition of Tie2 autophosphorylation in human Ea.hy926 cells; assay type: cell-based
[17] = Inhibition of JNK

T1 sequence (Q02763 whole entry): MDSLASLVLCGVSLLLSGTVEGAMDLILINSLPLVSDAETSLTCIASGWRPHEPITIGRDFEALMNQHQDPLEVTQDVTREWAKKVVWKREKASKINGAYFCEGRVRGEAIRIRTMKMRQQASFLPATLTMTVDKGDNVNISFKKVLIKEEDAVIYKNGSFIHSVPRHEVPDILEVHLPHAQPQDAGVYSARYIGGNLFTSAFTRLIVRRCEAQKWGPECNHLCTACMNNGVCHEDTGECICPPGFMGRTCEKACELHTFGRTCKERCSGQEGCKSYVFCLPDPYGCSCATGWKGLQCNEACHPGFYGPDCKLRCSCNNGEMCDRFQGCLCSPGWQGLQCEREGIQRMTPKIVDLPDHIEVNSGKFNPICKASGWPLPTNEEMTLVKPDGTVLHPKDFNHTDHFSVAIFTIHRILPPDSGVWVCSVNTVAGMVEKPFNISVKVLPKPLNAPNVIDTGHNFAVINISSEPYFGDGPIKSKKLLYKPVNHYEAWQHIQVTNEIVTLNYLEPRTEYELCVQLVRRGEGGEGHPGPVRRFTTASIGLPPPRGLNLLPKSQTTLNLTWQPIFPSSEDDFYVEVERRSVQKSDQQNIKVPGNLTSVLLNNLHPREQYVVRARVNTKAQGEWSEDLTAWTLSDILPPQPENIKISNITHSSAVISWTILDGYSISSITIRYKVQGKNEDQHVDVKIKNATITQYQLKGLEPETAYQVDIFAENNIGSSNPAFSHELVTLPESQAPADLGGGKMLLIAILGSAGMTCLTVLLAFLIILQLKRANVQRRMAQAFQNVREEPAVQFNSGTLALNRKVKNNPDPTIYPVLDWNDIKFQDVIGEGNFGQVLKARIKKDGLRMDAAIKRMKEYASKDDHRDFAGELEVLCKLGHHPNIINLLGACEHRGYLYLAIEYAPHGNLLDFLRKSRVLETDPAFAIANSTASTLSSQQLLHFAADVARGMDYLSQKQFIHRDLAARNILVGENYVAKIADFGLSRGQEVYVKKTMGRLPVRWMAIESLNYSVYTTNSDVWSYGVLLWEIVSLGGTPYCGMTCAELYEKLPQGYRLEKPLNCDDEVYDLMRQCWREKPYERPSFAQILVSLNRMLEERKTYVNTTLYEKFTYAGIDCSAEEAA

Row | SMILES | pIC50 [1] | pIC50 [2] | other results
1 | CNc1nccc(-c2cccnc2Oc2ccc(Nc3nc4ccccc4[nH]3)cc2)n1 | 6.60 | < 4.60 | 
2 | CNc1nccc(-c2cccnc2Oc2c(C)cc(Nc3nc4ccccc4[nH]3)c3ccccc23)n1 |  | < 5.30 | pIC50 [3]: 7.55; pIC50 [4]: 7.10; pIC50 [5]: < 5.92; clearance [6]: 28 mL/min/kg; Vd [7]: 5.9 L/kg; half-life [8]: 3.7 h; bioavailability [9]: 26%; Activity [10]: Dose-dependent effect; Activity [11]: Active; Activity [12]: 50%; concentration [13]: 260 nM; fraction unbound [14]: 0.004; unbound plasma concentration [15]: 1 nM
3 | CNc1nccc(-c2cccnc2Oc2ccc(Nc3nc4ccccc4[nH]3)cc2C)n1 | 7.64 | < 4.60 | pIC50 [16]: 6.60
4 | CNc1nccc(-c2cccnc2Oc2ccc(Nc3nc4ccccc4[nH]3)c(C)c2C)n1 | 6.51 | < 4.60 | 
5 | CNc1nccc(-c2cccnc2Oc2ccc(Nc3nc4ccc(C(F)(F)F)cc4[nH]3)cc2C)n1 | 6.33 | 5.22 | 
6 | CNc1nccc(-c2cccnc2Oc2ccc(NC(=O)Nc3ccccc3)cc2C)n1 | 6.34 | 5.12 | 
7 | CNc1nccc(-c2cccnc2Oc2ccc(Nc3nc4c(C)cccc4[nH]3)c3ccccc23)n1 | 6.96 | 5.80 | 
8 | CNc1nccc(-c2cccnc2Oc2ccc(Nc3nc4ccccc4[nH]3)c3ccccc23)n1 | 9.00 | 5.85 | pEC50 [17]: > 7.00; pIC50 [16]: 7.70; pIC50 [3]: 7.72; pIC50 [4]: 8.00; pIC50 [5]: 6.92
9 | CNc1nccc(-c2cccnc2Oc2ccc(Nc3nc4ccccc4[nH]3)c(C)c2)n1 | 6.23 | < 4.60 | 

The next molecules have a higher pIC50 [2] than those just listed; values first:

Row | pIC50 [1] | pIC50 [2] | SMILES | other results
10 | 7.80 | 7.52 | CNc1nccc(-c2cccnc2Oc2ccc(Nc3nc4ccccc4o3)c3ccccc23)n1 | 
11 |  | 7.47 | CNc1nccc(-c2cccnc2Oc2ccc(NC(=O)Nc3cccc(C(F)(F)F)c3)cc2C)n1 | 
12 | 7.57 | 7.16 | CNc1nccc(-c2cccnc2Oc2ccc(Nc3nc4cc(C(F)(F)F)ccc4[nH]3)c3ccccc23)n1 | 
13 | 6.62 | 6.60 | CNc1nccc(-c2cccnc2Oc2ccc(Nc3nc4ccccc4n3C)c3ccccc23)n1 | 
14 | 8.30 | 7.40 | CNc1nccc(-c2cccnc2Oc2ccc(NC(=O)Nc3ccccc3)c3ccccc23)n1 | 
15 | 7.36 | 7.06 | CNc1nccc(-c2cccnc2Oc2ccc(Nc3nc4ccccc4s3)c3ccccc23)n1 | 
